Experimental data from patent US9974775B2, “Substituted imidazoles as N-type calcium channel blockers” (Janssen Pharmaceutica NV, priority 2013, dated 2018).

Target: human N-type Ca channel (Homo sapiens, UniProt Q00975)
Assay: Measurement of electrophysiological response (QPatch)
Details: for IC50: concentration range 0.3-10 μM
[1] = N Type IC50 Data Qpatch Pulse = 1, Pulse = 1
[2] = N Type IC50 Data Qpatch Pulse = 15, Pulse = 15
[3] = concentration range 0.01-0.3 μM

Sequence of human N-type Ca channel (Q00975 whole entry): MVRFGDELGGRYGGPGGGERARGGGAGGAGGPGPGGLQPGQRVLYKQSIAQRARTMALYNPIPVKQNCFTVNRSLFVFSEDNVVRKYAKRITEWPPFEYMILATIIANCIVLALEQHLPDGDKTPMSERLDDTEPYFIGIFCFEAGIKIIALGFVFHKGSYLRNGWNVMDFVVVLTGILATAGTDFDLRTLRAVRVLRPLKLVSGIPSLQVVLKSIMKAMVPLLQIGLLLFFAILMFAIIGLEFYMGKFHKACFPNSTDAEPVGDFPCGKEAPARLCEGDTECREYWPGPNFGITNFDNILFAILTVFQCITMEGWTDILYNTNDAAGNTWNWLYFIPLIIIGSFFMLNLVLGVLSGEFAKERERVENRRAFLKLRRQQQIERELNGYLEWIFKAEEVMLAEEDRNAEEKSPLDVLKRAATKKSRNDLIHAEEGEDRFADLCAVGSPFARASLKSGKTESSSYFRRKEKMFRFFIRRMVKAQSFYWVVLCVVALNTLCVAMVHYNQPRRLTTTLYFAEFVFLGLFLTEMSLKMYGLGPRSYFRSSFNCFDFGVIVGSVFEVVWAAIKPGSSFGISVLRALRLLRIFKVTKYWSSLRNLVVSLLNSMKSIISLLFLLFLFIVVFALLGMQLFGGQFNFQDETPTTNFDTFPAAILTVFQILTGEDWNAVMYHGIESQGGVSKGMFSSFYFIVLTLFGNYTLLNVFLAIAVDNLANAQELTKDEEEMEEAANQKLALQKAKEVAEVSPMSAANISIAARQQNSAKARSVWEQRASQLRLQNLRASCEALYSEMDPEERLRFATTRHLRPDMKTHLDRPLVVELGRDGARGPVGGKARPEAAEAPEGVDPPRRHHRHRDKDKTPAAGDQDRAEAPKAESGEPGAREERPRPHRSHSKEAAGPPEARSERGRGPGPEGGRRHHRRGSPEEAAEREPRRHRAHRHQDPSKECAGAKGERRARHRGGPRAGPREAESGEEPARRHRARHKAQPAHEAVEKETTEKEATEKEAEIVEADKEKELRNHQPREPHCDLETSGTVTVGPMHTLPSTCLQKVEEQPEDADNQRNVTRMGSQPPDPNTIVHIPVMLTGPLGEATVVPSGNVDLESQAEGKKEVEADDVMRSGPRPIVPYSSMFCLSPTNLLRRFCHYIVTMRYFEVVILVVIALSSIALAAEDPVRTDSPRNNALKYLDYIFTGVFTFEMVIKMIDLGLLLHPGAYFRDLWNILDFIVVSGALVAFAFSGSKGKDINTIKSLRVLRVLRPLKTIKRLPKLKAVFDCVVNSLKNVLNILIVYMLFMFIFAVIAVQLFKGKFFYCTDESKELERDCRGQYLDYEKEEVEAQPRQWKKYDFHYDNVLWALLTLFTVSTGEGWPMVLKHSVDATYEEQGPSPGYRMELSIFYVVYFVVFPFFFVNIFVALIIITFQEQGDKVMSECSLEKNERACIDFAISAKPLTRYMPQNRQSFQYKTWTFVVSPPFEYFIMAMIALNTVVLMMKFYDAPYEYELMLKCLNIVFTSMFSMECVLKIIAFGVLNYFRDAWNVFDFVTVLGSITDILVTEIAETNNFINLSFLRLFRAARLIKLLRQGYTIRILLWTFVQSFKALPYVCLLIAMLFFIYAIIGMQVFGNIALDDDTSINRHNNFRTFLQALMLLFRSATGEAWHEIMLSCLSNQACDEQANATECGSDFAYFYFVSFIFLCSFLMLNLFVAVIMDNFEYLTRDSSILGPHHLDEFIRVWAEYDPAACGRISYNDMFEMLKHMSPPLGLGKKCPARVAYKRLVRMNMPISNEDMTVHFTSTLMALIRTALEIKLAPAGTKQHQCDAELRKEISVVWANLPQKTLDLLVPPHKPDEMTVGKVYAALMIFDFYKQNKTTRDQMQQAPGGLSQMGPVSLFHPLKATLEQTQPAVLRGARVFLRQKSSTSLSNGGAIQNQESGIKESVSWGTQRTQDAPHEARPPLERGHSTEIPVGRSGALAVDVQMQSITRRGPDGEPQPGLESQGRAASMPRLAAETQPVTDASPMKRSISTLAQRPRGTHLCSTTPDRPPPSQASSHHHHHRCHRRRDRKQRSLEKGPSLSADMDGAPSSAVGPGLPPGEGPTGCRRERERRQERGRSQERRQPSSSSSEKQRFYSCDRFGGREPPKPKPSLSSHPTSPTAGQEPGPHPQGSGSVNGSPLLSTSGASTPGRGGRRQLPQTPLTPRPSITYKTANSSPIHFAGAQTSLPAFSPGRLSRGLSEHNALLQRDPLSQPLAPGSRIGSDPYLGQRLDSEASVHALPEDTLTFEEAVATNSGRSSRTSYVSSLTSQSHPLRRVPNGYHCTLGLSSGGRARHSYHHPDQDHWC
Sequence of human N-type Ca channel (P54284 whole entry partner): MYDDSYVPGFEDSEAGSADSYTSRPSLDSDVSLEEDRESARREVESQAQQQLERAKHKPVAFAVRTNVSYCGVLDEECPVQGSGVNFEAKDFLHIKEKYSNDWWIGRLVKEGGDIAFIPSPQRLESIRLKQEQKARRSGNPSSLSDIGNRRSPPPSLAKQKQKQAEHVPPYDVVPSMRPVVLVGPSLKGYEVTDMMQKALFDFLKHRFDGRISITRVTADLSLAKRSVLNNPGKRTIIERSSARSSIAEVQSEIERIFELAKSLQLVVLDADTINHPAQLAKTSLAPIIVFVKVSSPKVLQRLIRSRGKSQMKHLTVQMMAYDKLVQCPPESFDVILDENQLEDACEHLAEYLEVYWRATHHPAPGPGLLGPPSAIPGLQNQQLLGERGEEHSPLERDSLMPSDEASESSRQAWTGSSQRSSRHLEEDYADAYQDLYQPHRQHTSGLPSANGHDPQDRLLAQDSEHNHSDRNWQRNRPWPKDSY
Sequence of human N-type Ca channel (P54289 25-956 partner limits assumed): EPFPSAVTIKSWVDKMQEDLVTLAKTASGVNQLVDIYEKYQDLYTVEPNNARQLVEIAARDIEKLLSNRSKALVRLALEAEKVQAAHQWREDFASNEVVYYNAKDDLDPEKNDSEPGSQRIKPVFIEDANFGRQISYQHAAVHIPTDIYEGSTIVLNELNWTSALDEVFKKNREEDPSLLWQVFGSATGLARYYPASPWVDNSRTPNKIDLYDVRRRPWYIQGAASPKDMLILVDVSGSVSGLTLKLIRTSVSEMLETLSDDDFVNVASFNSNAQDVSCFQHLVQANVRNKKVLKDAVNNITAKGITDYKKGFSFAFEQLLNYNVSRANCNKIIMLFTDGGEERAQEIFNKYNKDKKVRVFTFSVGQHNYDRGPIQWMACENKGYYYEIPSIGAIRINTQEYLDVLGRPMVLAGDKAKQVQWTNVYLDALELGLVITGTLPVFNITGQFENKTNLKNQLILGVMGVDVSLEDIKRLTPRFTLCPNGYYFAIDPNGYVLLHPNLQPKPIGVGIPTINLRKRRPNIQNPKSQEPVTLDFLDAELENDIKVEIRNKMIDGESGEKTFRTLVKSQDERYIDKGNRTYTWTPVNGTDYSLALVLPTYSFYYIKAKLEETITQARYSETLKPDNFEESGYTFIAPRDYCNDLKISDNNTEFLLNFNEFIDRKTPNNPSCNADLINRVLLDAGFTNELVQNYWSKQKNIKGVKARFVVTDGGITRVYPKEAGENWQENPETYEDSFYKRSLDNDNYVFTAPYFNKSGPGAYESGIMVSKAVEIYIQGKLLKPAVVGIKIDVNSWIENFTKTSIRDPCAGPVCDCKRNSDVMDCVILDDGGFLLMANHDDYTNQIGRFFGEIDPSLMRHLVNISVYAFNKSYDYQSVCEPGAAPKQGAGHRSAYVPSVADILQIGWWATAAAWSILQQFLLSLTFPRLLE
Sequence of human N-type Ca channel (P54289 957-1103 partner limits assumed): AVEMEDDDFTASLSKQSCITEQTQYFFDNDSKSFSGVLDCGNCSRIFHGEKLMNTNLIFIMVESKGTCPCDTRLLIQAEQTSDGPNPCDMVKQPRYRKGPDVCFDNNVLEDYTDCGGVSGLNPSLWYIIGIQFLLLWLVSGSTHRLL
Procedure: The recombinant cell line described above was used in the measurement of electrophysiological properties with QPatch (Sophion). […] Prior to the experiment, the flasks were moved to 30° C. and incubated for 48-72 hrs. On the day of assaying, cells were detached and harvested. The cell pellet was re-suspended in SMF4HEK (HyClone)/25 mM HEPS at 2-5 million/mL and placed on the QStirrer of the QPatch for 30-60 min prior to the start of the assay. […] Microtiter-Plate/Reference Buffer contained 140 mM TEA-Cl, 10 mM BaCl2, 0.8 mM MgCl2, 10 mM HEPES pH˜7.4 adjusted with TEA-OH/HCl, and ˜300 mOsm. Cells were transferred to a QPatch 48 plate and gigaseal was formed. The plate was perfused with intracellular and extracellular buffer. […] In brief, cells were depolarized from resting potential of −80 mV to +20 mV and current was recorded. Data was plotted as percent inhibition vs concentration of the compound and IC50 values were generated using Graphpad Prism non-linear regression analysis.

COc1ccccc1-c1nc(C2CC(C)(C)OC(C)(C)C2)cn1-c1ccc(F)cc1 [Cpd 4, 1-(4-Fluorophenyl)-2-(2-methoxyphenyl)-4-(2,2,6,6-tetramethyltetrahydro-2H-pyran-4-yl)-1H-imidazole]
IC50 [1]: ≥ 10 µM

COc1ccccc1-c1nc(C2CC(C)(C)OC(C)(C)C2)cn1-c1ccc(C)nc1 [Cpd 5, 5-[2-(2-Methoxyphenyl)-4-(2,2,6,6-tetramethyltetrahydro-2H-pyran-4-yl)-1H-imidazol-1-yl]-2-methylpyridine]
IC50 [2]: ≥ 10 µM

COc1ccccc1-c1nc(C2CC(C)(C)OC(C)(C)C2)cn1-c1ccc(C)cn1 [Cpd 6, 2-[2-(2-Methoxyphenyl)-4-(2,2,6,6-tetramethyltetrahydro-2H-pyran-4-yl)-1H-imidazol-1-yl]-5-methylpyridine]
IC50 [1]: ≥ 10 µM | IC50 [2]: ≥ 10 µM

COc1ncccc1-c1nc(C2CC(C)(C)OC(C)(C)C2)cn1Cc1cccc(Cl)c1 [Cpd 9, 3-(1-(3-chlorobenzyl)-4-(2,2,6,6-tetramethyltetrahydro-2H-pyran-4-yl)-1H-imidazol-2-yl)-2-methoxypyridine]
Qpatch Pulse = 1 (percent inhibition) (concentration range 0.01-1 μM): 46% | Qpatch Pulse = 15 (percent inhibition) (concentration range 0.01-1 μM): 37%

COc1ncccc1-c1nc(C2CC(C)(C)OC(C)(C)C2)cn1-c1ccc(C#N)c(C)c1 [Cpd 15, 4-[2-(2-Methoxypyridin-3-yl)-4-(2,2,6,6-tetramethyltetrahydro-2H-pyran-4-yl)-1H-imidazol-1-yl]-2-methylbenzonitrile]
N Type IC50 Data Qpatch Pulse = 1 [3]: poor fit | N Type IC50 Data Qpatch Pulse = 15 [3]: poor fit

COc1ncccc1-c1nc(C2CC(C)(C)OC(C)(C)C2)cn1-c1ccc(F)c(F)c1F [Cpd 16, 2-methoxy-3-(4-(2,2,6,6-tetramethyltetrahydro-2H-pyran-4-yl)-1-(2,3,4-trifluorophenyl)-1H-imidazol-2-yl)pyridine]
N Type IC50 Data Qpatch Pulse = 1 [3]: poor fit | N Type IC50 Data Qpatch Pulse = 15 [3]: poor fit

COc1ccccc1-c1nc(C2CC(C)(C)OC(C)(C)C2)cn1-c1ccc(C#N)c(C)c1 [Cpd 21, 4-[2-(2-Methoxyphenyl)-4-(2,2,6,6-tetramethyltetrahydro-2H-pyran-4-yl)-1H-imidazol-1-yl]-2-methylbenzonitrile]
Qpatch Pulse = 15 (percent inhibition) (concentration range 0.01-1 μM): 39%

COc1ccc(-n2cc(C3CC(C)(C)OC(C)(C)C3)nc2-c2cccnc2OC)cc1F [Cpd 23, 3-[1-(3-Fluoro-4-methoxyphenyl)-4-(2,2,6,6-tetramethyltetrahydro-2H-pyran-4-yl)-1H-imidazol-2-yl]-2-methoxypyridine]
Qpatch Pulse = 1 (percent inhibition) (concentration range 0.01-1 μM): 21%

COc1cc(-n2cc(C3CC(C)(C)OC(C)(C)C3)nc2-c2cccnc2OC)ccc1F [Cpd 24, 3-[1-(4-Fluoro-3-methoxyphenyl)-4-(2,2,6,6-tetramethyltetrahydro-2H-pyran-4-yl)-1H-imidazol-2-yl]-2-methoxypyridine]
Qpatch Pulse = 1 (percent inhibition) (concentration range 0.01-1 μM): 29%

COc1ncccc1-c1nc(C2CC(C)(C)OC(C)(C)C2)cn1Cc1ccccc1Cl [Cpd 27, 3-[1-(2-Chlorobenzyl)-4-(2,2,6,6-tetramethyltetrahydro-2H-pyran-4-yl)-1H-imidazol-2-yl]-2-methoxypyridine]
N Type IC50 Data Qpatch Pulse = 1 [3]: poor fit

COc1ncccc1-c1nc(C2CC(C)(C)OC(C)(C)C2)cn1Cc1ccc(Cl)cc1 [Cpd 28, 3-[1-(4-Chlorobenzyl)-4-(2,2,6,6-tetramethyltetrahydro-2H-pyran-4-yl)-1H-imidazol-2-yl]-2-methoxypyridine]
N Type IC50 Data Qpatch Pulse = 1 [3]: poor fit | N Type IC50 Data Qpatch Pulse = 15 [3]: poor fit

COc1ncccc1-c1nc(C2CC(C)(C)OC(C)(C)C2)cn1-c1ccc(C#N)c(C(F)(F)F)c1 [Cpd 29, 4-(2-(2-methoxypyridin-3-yl)-4-(2,2,6,6-tetramethyltetrahydro-2H-pyran-4-yl)-1H-imidazol-1-yl)-2-(trifluoromethyl)benzonitrile]
N Type IC50 Data Qpatch Pulse = 1 [3]: poor fit | N Type IC50 Data Qpatch Pulse = 15 [3]: poor fit

COc1ncccc1-c1nc(C2CC(C)(C)OC(C)(C)C2)cn1-c1cccc(F)c1F [Cpd 31, 3-(1-(2,3-difluorophenyl)-4-(2,2,6,6-tetramethyltetrahydro-2H-pyran-4-yl)-1H-imidazol-2-yl)-2-methoxypyridine]
N Type IC50 Data Qpatch Pulse = 15 [3]: poor fit

COc1cc(-n2cc(C3CC(C)(C)OC(C)(C)C3)nc2-c2ccccc2OC)ccc1C#N [Cpd 34, 2-Methoxy-4-[2-(2-methoxyphenyl)-4-(2,2,6,6-tetramethyltetrahydro-2H-pyran-4-yl)-1H-imidazol-1-yl]benzonitrile]
Qpatch Pulse = 1 (percent inhibition) (concentration range 0.01-1 μM): 38%

COc1ncccc1-c1nc(C2CC(C)(C)OC(C)(C)C2)cn1-c1ccc(F)c(Cl)c1 [Cpd 46, 3-[1-(3-Chloro-4-fluorophenyl)-4-(2,2,6,6-tetramethyltetrahydro-2H-pyran-4-yl)-1H-imidazol-2-yl]-2-methoxypyridine]
IC50 [1]: ≥ 10 µM

COc1ncccc1-c1nc(C2CC(C)(C)OC(C)(C)C2)cn1-c1ccc(C(F)(F)F)nc1 [Cpd 54, 2-Methoxy-3-{4-(2,2,6,6-tetramethyltetrahydro-2H-pyran-4-yl)-1-[6-(trifluoromethyl)pyridin-3-yl]-1H-imidazol-2-yl}pyridine]
N Type IC50 Data Qpatch Pulse = 1 (concentration range 0.01-1 μM): Poor fit | N Type IC50 Data Qpatch Pulse = 15 (concentration range 0.01-1 μM): Poor fit

CC1(C)CC(c2cn(-c3ccc(Cl)cc3)c(CC3CC3)n2)CC(C)(C)O1 [Cpd 55, 1-(4-Chlorophenyl)-2-(cyclopropylmethyl)-4-(2,2,6,6-tetramethyltetrahydro-2H-pyran-4-yl)-1H-imidazole]
Qpatch Pulse = 1 (percent inhibition) (concentration range 0.01-1 μM): 48%

CC1(C)CC(c2cn(-c3ccc(C(F)(F)F)nc3)c(CC3CC3)n2)CC(C)(C)O1 [Cpd 59, 5-[2-(Cyclopropylmethyl)-4-(2,2,6,6-tetramethyltetrahydro-2H-pyran-4-yl)-1H-imidazol-1-yl]-2-(trifluoromethyl)pyridine]
N Type IC50 Data Qpatch Pulse = 1 [3]: poor fit | N Type IC50 Data Qpatch Pulse = 15 [3]: poor fit

CCOc1nccnc1-c1nc(C2CC(C)(C)OC(C)(C)C2)cn1-c1ccc(Cl)cc1 [Cpd 60, 2-[1-(4-Chlorophenyl)-4-(2,2,6,6-tetramethyltetrahydro-2H-pyran-4-yl)-1H-imidazol-2-yl]-3-ethoxypyrazine]
N Type IC50 Data Qpatch Pulse = 15 [3]: poor fit

COc1cnccc1-c1nc(C2CC(C)(C)OC(C)(C)C2)cn1-c1ccc(Cl)cc1 [Cpd 66, 4-(1-(4-chlorophenyl)-4-(2,2,6,6-tetramethyltetrahydro-2H-pyran-4-yl)-1H-imidazol-2-yl)-3-methoxypyridine]
IC50 [1]: ≥ 10 µM

COc1ccncc1-c1nc(C2CC(C)(C)OC(C)(C)C2)cn1-c1ccc(Cl)cc1 [Cpd 68, 3-(1-(4-chlorophenyl)-4-(2,2,6,6-tetramethyltetrahydro-2H-pyran-4-yl)-1H-imidazol-2-yl)-4-methoxypyridine]
IC50 [1]: ≥ 10 µM

COc1ncccc1-c1nc(C2CC(C)(C)OC(C)(C)C2)cn1-c1cc(F)ccc1F [Cpd 71, 3-(1-(2,5-difluorophenyl)-4-(2,2,6,6-tetramethyltetrahydro-2H-pyran-4-yl)-1H-imidazol-2-yl)-2-methoxypyridine]
N Type IC50 Data Qpatch Pulse = 15 (concentration range 0.01-1 μM): poor fit

COc1ncccc1-c1nc(C2CC(C)(C)OC(C)(C)C2)cn1-c1cc(F)cc(F)c1 [Cpd 72, 3-(1-(3,5-difluorophenyl)-4-(2,2,6,6-tetramethyltetrahydro-2H-pyran-4-yl)-1H-imidazol-2-yl)-2-methoxypyridine]
N Type IC50 Data Qpatch Pulse = 1 (concentration range 0.01-1 μM): poor fit | N Type IC50 Data Qpatch Pulse = 15 (concentration range 0.01-1 μM): poor fit

COc1ncccc1-c1nc(C2CC(C)(C)OC(C)(C)C2)cn1-c1cc(F)cc(C#N)c1 [Cpd 73, 3-fluoro-5-(2-(2-methoxypyridin-3-yl)-4-(2,2,6,6-tetramethyltetrahydro-2H-pyran-4-yl)-1H-imidazol-1-yl)benzonitrile]
N Type IC50 Data Qpatch Pulse = 1 (concentration range 0.01-1 μM): poor fit | N Type IC50 Data Qpatch Pulse = 15 (concentration range 0.01-1 μM): poor fit

COc1ncccc1-c1nc(C2CC(C)(C)OC(C)(C)C2)cn1-c1ccc(C#N)c(Cl)c1 [Cpd 78, 2-Chloro-4-[2-(2-methoxypyridin-3-yl)-4-(2,2,6,6-tetramethyltetrahydro-2H-pyran-4-yl)-1H-imidazol-1-yl]benzonitrile]
Qpatch Pulse = 1 (percent inhibition) (concentration range 0.01-1 μM): 58%

COc1ncccc1-c1nc(C2CC(C)(C)OC(C)(C)C2)cn1-c1cc(F)c(C#N)c(F)c1 [Cpd 82, 2,6-difluoro-4-(2-(2-methoxypyridin-3-yl)-4-(2,2,6,6-tetramethyltetrahydro-2H-pyran-4-yl)-1H-imidazol-1-yl)benzonitrile]
N Type IC50 Data Qpatch Pulse = 1 [3]: poor fit | N Type IC50 Data Qpatch Pulse = 15 [3]: poor fit

COc1ccccc1-c1nc(C2CC(C)(C)OC(C)(C)C2)cn1-c1c(F)cc(C#N)cc1F [Cpd 83, 3,5-difluoro-4-(2-(2-methoxyphenyl)-4-(2,2,6,6-tetramethyltetrahydro-2H-pyran-4-yl)-1H-imidazol-1-yl)benzonitrile]
N Type IC50 Data Qpatch Pulse = 1 [3]: poor fit | N Type IC50 Data Qpatch Pulse = 15 [3]: poor fit

COc1ncccc1-c1nc(C2CC(C)(C)OC(C)(C)C2)cn1-c1ccc(Cl)c(C#N)c1 [Cpd 84, 2-Chloro-5-[2-(2-methoxypyridin-3-yl)-4-(2,2,6,6-tetramethyltetrahydro-2H-pyran-4-yl)-1H-imidazol-1-yl]benzonitrile]
Qpatch Pulse = 1 (percent inhibition) (concentration range 0.01-1 μM): 39%

COc1ccc(-n2cc(C3CC(C)(C)OC(C)(C)C3)nc2-c2cccnc2OC)cc1C#N [Cpd 85, 2-Methoxy-5-[2-(2-methoxypyridin-3-yl)-4-(2,2,6,6-tetramethyltetrahydro-2H-pyran-4-yl)-1H-imidazol-1-yl]benzonitrile]
Qpatch Pulse = 1 (percent inhibition) (concentration range 0.01-1 μM): 45%

COc1ncncc1-c1nc(C2CC(C)(C)OC(C)(C)C2)cn1-c1ccc(C#N)cc1 [Cpd 86, 4-[2-(4-Methoxypyrimidin-5-yl)-4-(2,2,6,6-tetramethyltetrahydro-2H-pyran-4-yl)-1H-imidazol-1-yl]benzonitrile]
Qpatch Pulse = 1 (percent inhibition) (concentration range 0.01-1 μM): 28%

COc1nccnc1-c1nc(C2CC(C)(C)OC(C)(C)C2)cn1-c1ccc(C#N)cc1 [Cpd 87, 4-[2-(3-Methoxypyrazin-2-yl)-4-(2,2,6,6-tetramethyltetrahydro-2H-pyran-4-yl)-1H-imidazol-1-yl]benzonitrile]
N Type IC50 Data Qpatch Pulse = 1 [3]: poor fit | N Type IC50 Data Qpatch Pulse = 15 [3]: poor fit
